# Results: ChEMBL document CHEMBL2311472, “Discovery and optimization of potent broad-spectrum arenavirus inhibitors derived from benzimidazole and related heterocycles” (Bioorg Med Chem Lett, 2013)
# What was measured:
# Junin virus = test: Antiviral activity against Junin virus; assay type: functional, organism-based; conditions: Mammarenavirus juninense
# Guanarito virus = test: Antiviral activity against Guanarito virus; assay type: functional; conditions: Mammarenavirus guanaritoense
# Machupo mammarenavirus = test: Antiviral activity against Machupo virus; assay type: functional; conditions: Mammarenavirus machupoense
# Sabia virus = test: Antiviral activity against Sabia virus; assay type: functional
# Lassa virus = test: Antiviral activity against Lassa virus by pseudo-type antiviral assay; assay type: functional, organism-based; conditions: Mammarenavirus lassaense
SMILES,EC50 (Lassa virus) [nM],also measured
COc1ccc(-n2cnc3cc(NCc4ccc(C(C)C)cc4)ccc32)cc1,1.4,EC50 (Junin virus): 0.62 nM; EC50 (Guanarito virus): 0.44 nM; EC50 (Machupo mammarenavirus): 3.1 nM; EC50 (Sabia virus): 21 nM
CCOc1ccc(-n2c(N)nc3cc(NCc4ccc(CC)cc4)ccc32)cc1,29,
CCOc1ccc(-n2c(O)nc3cc(NCc4ccc(CC)cc4)ccc32)cc1,1800,
CCOc1ccc(-n2cnc3cc(NCc4ccc(CC)cc4)cc(C(=O)OC)c32)cc1,220,
CCOc1ccc(-n2cnc3cc(NCc4ccc(CC)cc4)cc(C(=O)O)c32)cc1,> 50000,
CCOc1ccc(-n2cnc3cc(NCc4ccc(CC)cc4)cc(N)c32)cc1,620,
CCOc1ccc(-n2cnc3cc(NCCc4ccc(CC)cc4)cnc32)cc1,65,
CCOc1ccc(-n2cnc3cc(NCCCc4ccc(CC)cc4)cnc32)cc1,210,
CCOc1ccc(-n2cnc3cc(/N=C/c4ccc(CC)cc4)cnc32)cc1,4300,
CCOc1ccc(Cn2cnc3cc(NCc4ccc(CC)cc4)cnc32)cc1,1600,
CCc1ccc(CNc2cnc3c(c2)ncn3-c2ccc(O)cc2)cc1,19,
CCc1ccc(CNc2cnc3c(c2)ncn3-c2ccc(OCCCO)cc2)cc1,13,
CCc1ccc(CNc2cnc3c(c2)ncn3-c2ccc(OCCN(C)C)cc2)cc1,80,
CCc1ccc(CNc2cnc3c(c2)ncn3-c2ccc(NC(C)=O)cc2)cc1,11,
CCOc1ccc(-n2cnc3cc(NCc4ccc(CC)cc4)cnc32)cc1N(C)C,250,
CCOc1ccc(-n2cnc3cc(NCc4ccc(CC)cc4)cnc32)c(CN)c1,1500,
CCOc1ccc(-n2cnc3cc(NCc4ccc(CC)cc4)cnc32)cc1CN,58,
CCOc1ccc(-n2cnc3cc(NCc4ccc(CC)c(N(C)C)c4)cnc32)cc1,5.9,
CCOc1ccc(-n2cnc3cc(NCc4ccc(CC)c(CN)c4)cnc32)cc1,26,

SMILES,EC50 (Lassa virus) [nM],also measured
CCOc1ccc(-n2cnc3cc(NCc4ccc(CC)cc4)ccc32)cc1,1.5,
CCOc1ccc(-n2c(C)nc3cc(NCc4ccc(CC)cc4)ccc32)cc1,1.9,
CCCc1nc2cc(NCc3ccc(CC)cc3)ccc2n1-c1ccc(OCC)cc1,170,
CCOc1ccc(-n2c(C#N)nc3cc(NCc4ccc(CC)cc4)ccc32)cc1,1.6,
CCOc1ccc(-n2c(C(=O)O)nc3cc(NCc4ccc(CC)cc4)ccc32)cc1,1.5,
CCOc1ccc(-n2c(C(N)=O)nc3cc(NCc4ccc(CC)cc4)ccc32)cc1,9.2,
CCOc1ccc(-n2ccc3cc(NCc4ccc(CC)cc4)ccc32)cc1,69,
CCOc1ccc(-c2c[nH]c3cc(NCc4ccc(CC)cc4)ccc23)cc1,13,EC50 (Junin virus): 12 nM; EC50 (Machupo mammarenavirus): 40 nM; EC50 (Sabia virus): 3.9 nM
COc1ccc(-n2ncc3cc(NCc4ccc(C(C)C)cc4)ccc32)cc1,130,
CCOc1ccc(-n2nnc3cc(NCc4ccc(CC)cc4)ccc32)cc1,6.1,
CCOc1ccc(-c2cnc3cc(NCc4ccc(CC)cc4)ccn23)cc1,9.3,
CCOc1ccc(-n2ccc3cc(NCc4ccc(CC)cc4)cnc32)cc1,25,
CCOc1ccc(-n2cnc3nc(NCc4ccc(CC)cc4)ccc32)cc1,6.8,
CCOc1ccc(-n2cnc3cc(NCc4ccc(CC)cc4)cnc32)cc1,0.16,EC50 (Junin virus): 7.9 nM; EC50 (Guanarito virus): 3.5 nM; EC50 (Machupo mammarenavirus): 28 nM; EC50 (Sabia virus): 54 nM
CCOc1ccc(-n2nnc3cc(NCc4ccc(CC)cc4)cnc32)cc1,0.87,EC50 (Junin virus): 14 nM; EC50 (Guanarito virus): 7.7 nM; EC50 (Machupo mammarenavirus): 81 nM; EC50 (Sabia virus): 93 nM
CCOc1ccc(-n2c(C(N)=O)nc3cc(NCc4ccc(CC)cc4)cnc32)cc1,4.4,
CCOc1ccc(-n2c(C(=O)O)nc3cc(NCc4ccc(CC)cc4)cnc32)cc1,0.16,
CCOc1ccc(-n2cnc3cc(NCc4ccc(CC)cc4)cnc32)cn1,9,
CCOc1ccc(-n2cnc3cc(NCc4ccc(CC)cc4)cnc32)nc1,0.98,
